Values joined by “and” are separate entries in the source; they are usually repeats but may differ in a detail not shown here. Equal values may be shown once. Read-outs that look alike come from different tables or passages of the source.
Assays:
HeLa = assay: MTT antiproliferative assay, HeLa; type: cell-based, human; conditions: for IC50: Homo sapiens, HeLa, MTT, 72 h, cervical cancer cells, read-out: IC50 Values (μM) ± SEM HeLa; for Selectivity Index HEK293/HeLa: IC50 HEK293 / IC50 HeLa
Outline: (§1)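 Treatment lasted 72 h at six concentrations (0.1–30.0 µM) on cells plated the night before. Read-out: MTT, 4 h, then A545 nm after DMSO solubilisation, relative to untreated cells; two or more independent experiments, five replicate wells.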

SiHa = assay: MTT antiproliferative assay, SiHa; type: cell-based, human; conditions: for IC50: Homo sapiens, SiHa, MTT, 72 h, cervical cancer cells, read-out: IC50 Values (μM) ± SEM SiHa; for Selectivity Index HEK293/SiHa: IC50 HEK293 / IC50 SiHa
Outline: as §1

MCF-7 = assay: MTT antiproliferative assay, MCF-7; type: cell-based, human; conditions: for IC50: Homo sapiens, MCF7, 72 h, MTT, 72 h, breast cancer cells, read-out: IC50 Values (μM) ± SEM MCF-7; for Selectivity Index HEK293/MCF-7: IC50 HEK293 / IC50 MCF-7
Outline: as §1

MDA-MB-231 = assay: MTT antiproliferative assay, MDA-MB-231; type: cell-based, human; conditions: for IC50: Homo sapiens, MDA-MB-231, 72 h, MTT, 72 h, breast cancer cells, read-out: IC50 Values (μM) ± SEM MDA-MB-231; for Selectivity Index HEK293/MDA-MB-231: IC50 HEK293 / IC50 MDA-MB-231
Outline: as §1

A2780 = assay: MTT antiproliferative assay, A2780; type: cell-based, human; conditions: for IC50: Homo sapiens, A2780, MTT, 72 h, ovarian cancer cells, read-out: IC50 Values (μM) ± SEM A2780; for Selectivity Index HEK293/A2780: IC50 HEK293 / IC50 A2780
Outline: as §1

Fc-MYCT = assay: FRET-melting, Fc-MYCT; type: binding; conditions: ligand 2 μM, DNA 0.2 μM, K+ conditions, pH 7.2
FK-RAST = assay: FRET-melting, FK-RAST; type: binding; conditions: ligand 2 μM, DNA 0.2 μM, 10 mM KCl, 90 mM LiCl, pH 7.2
FBCL-2T = assay: FRET-melting, FBCL-2T; type: binding; conditions: ligand 2 μM, DNA 0.2 μM, 10 mM KCl, 90 mM LiCl, pH 7.2
[1] = test system: human telomeric sequence F21T; assay: FRET-melting, F21T; type: binding; conditions: ligand 2 μM, DNA 0.2 μM, 10 mM KCl, 90 mM LiCl, pH 7.2
FdxT = assay: FRET-melting, duplex control FdxT; type: binding; conditions: ligand 2 μM, DNA 0.2 μM, 10 mM KCl, 90 mM LiCl, pH 7.2, hairpin duplex
BCL-2 = assay: Native electrospray mass spectrometry, BCL-2; type: binding; conditions: 10 µM DNA, 20 µM ligand; for Bound DNA (%) BCL-2: 100 mM ammonium acetate
Description: (§2) These parameters ensured a good signal intensity without disrupting noncovalent complexes, which was verified using d[G4T4G4]2 as a control. Oligonucleotides were purchased lyophilized, and RP-cartridge purified from Eurogentec (Kanaka Eurogentec, Seraing, Belgium), then buffer exchanged with ammonium acetate (5 M; Sigma-Aldrich, Saint-Quentin-Fallavier, France) using Amicon Ultra (3 K cut-off; Merck Millipore, Cork, Ireland). Sample solutions were prepared by diluting the proper volume of oligonucleotide stock solutions to reach 10 µM of DNA and 20 µM of ligand, in 100 mM ammonium acetate. The solutions were incubated for 16 h at 4 °C before analysis. Kd were calculated as already described.

[2] = test system: human telomeric sequence 24TTG; assay: Native electrospray mass spectrometry, 24TTG; type: binding; conditions: 10 µM DNA, 20 µM ligand; for Bound DNA (%) 24TTG: 100 mM ammonium acetate
Description: as §2

c-MYC = assay: Native electrospray mass spectrometry, c-MYC; type: binding; conditions: 10 µM DNA, 20 µM ligand; for Bound DNA (%) c-MYC: 100 mM ammonium acetate
Description: as §2

ds26 = assay: Native electrospray mass spectrometry, duplex control ds26; type: binding; conditions: 10 µM DNA, 20 µM ligand; for Bound DNA (%) ds26: 100 mM ammonium acetate, hairpin duplex control
Description: as §2

[3] = test system: 24TTG (DNA, G4) TTGGGTTAGGGTTAGGGTTAGGGA; assay: native ESI-MS; conditions: 100 mM NH4+ (ammonium acetate), pH 6.8, 10 µM DNA, 20 µM ligand, first of two successive steps
[4] = test system: c-MYC (DNA, G4) TGAGGGTGGGTAGGGTGGGTAA; assay: native ESI-MS; conditions: 100 mM NH4+ (ammonium acetate), pH 6.8, 10 µM DNA, 20 µM ligand, first of two successive steps
[5] = test system: ds26 (DNA, duplex) CAATCGGATCGAATTCGATCCGATTG; assay: native ESI-MS; conditions: 100 mM NH4+ (ammonium acetate), pH 6.8, 10 µM DNA, 20 µM ligand, first of two successive steps
[6] = first binding event (1:1 complex), read-out: Kd1 BCL-2
[7] = second binding event (2:1 complex), read-out: Kd2 BCL-2
[8] = first binding event (1:1 complex), read-out: Kd1 24TTG
[9] = second binding event (2:1 complex), read-out: Kd2 24TTG
[10] = first binding event (1:1 complex), read-out: Kd1 c-MYC
[11] = second binding event (2:1 complex), read-out: Kd2 c-MYC
[12] = first binding event, read-out: Kd1 ds26
[13] = second binding event, read-out: Kd2 ds26

SMILES | IC50 (HeLa) [µM] | IC50 (SiHa) [µM] | IC50 (MCF-7) [µM] | IC50 (MDA-MB-231) [µM] | IC50 (A2780) [µM] | ΔT1/2 (°C) Fc-MYCT (Fc-MYCT) | ΔT1/2 (°C) FK-RAST (FK-RAST) | ΔT1/2 (°C) FBCL-2T (FBCL-2T) | ΔT1/2 (°C) FdxT (FdxT) [°C] | Bound DNA (%) BCL-2 (BCL-2) [%] | Kd (BCL-2; [6]) [µM] | Kd (BCL-2; [7]) [µM] | Bound DNA (%) 24TTG [2] [%] | Kd [2, 8] [µM] | Kd [2, 9] [µM] | Bound DNA (%) c-MYC (c-MYC) [%] | Kd (c-MYC; [10]) [µM] | Kd (c-MYC; [11]) [µM] | Bound DNA (%) ds26 (ds26) [%] | Kd (ds26; [12]) [µM] | also measured
CN(C)CCCNCc1ccc(-c2cc(-c3ccc(CNCCCN(C)C)cc3)c3cc(-c4ccccc4)ccc3n2)cc1 [Compound 13a, 2,4-bis{4-[(3-dimethylaminopropyl)aminomethyl]phenyl}-6-phenylquinoline] | 0.5 ± 0.01 | 0.99 ± 0.15 | 0.54 ± 0.01 | 0.58 ± 0.02 | 0.9 ± 0.04 | 7.3 ± 1.0 °C | 15.0 ± 0.3 °C | 7.7 ± 0.6 °C | 0.4 ± 0.1 | 92 | 1.6 | 0.75 | 81 | 3.7 | 7.1 | 78 | 3.8 | 36 | 53 | 14 | Selectivity Index HEK293/HeLa (HeLa): >60.0; Selectivity Index HEK293/SiHa (SiHa): >30.3; Selectivity Index HEK293/MCF-7 (MCF-7): >55.5; Selectivity Index HEK293/MDA-MB-231 (MDA-MB-231): >51.7; Selectivity Index HEK293/A2780 (A2780): >33.3; ΔT1/2 (°C) F21T [1]: 21.5 ± 0.4 °C; Kd (ds26; [13]): 95 µM; Kd1 ([3]; Kd2 7.1): 3.7 µM; Kd1 ([4]; Kd2 36): 3.8 µM; Kd1 ([5]; Kd2 95): 14 µM
CN1CCN(CCCCNCc2ccc(-c3nc(-c4ccc(CNCCCCN5CCN(C)CC5)cc4)c4cc(-c5ccccc5)ccc4n3)cc2)CC1 [Compound 12e, 2,4-bis{4-[(4-(4-methylpiperazin-1-yl)butyl)aminomethyl]phenyl}-6-phenylquinazoline] | 1.27 ± 0.02 | 0.63 ± 0.05 | 1.27 ± 0.01 | 0.89 ± 0.46 | 2.19 ± 0.41 | 19.5 °C and 19.5 ± 1.0 °C | 33.1 °C and 33.1 ± 2.1 °C | 22.7 °C and 22.7 ± 0.4 °C | 5.4 ± 1.6 | 79 | 6.2 | 2.2 | 72 | 14 | 1.9 | 75 | 4.3 | 74 | 36 | 30 | ΔT1/2 (°C) F21T [1]: 33.9 °C and 33.9 ± 0.5 °C; Kd (ds26; [13]): 280 µM; Kd1 ([3]; Kd2 1.9, cooperative): 14 µM; Kd1 ([4]; Kd2 74): 4.3 µM; Kd1 ([5]; Kd2 280): 30 µM
CN1CCN(CCCCNCc2ccc(-c3cc(-c4ccc(CNCCCCN5CCN(C)CC5)cc4)c4cc(-c5ccccc5)ccc4n3)cc2)CC1 [Compound 13d, 2,4-bis{4-[(4-(4-methylpiperazin-1-yl)butyl)aminomethyl]phenyl}-6-phenylquinoline] | 2.27 ± 0.89 | 1.11 ± 0.37 | 1.62 ± 0.09 | 1.64 ± 0.11 | 2.1 ± 0.09 | 10.6 ± 0.7 °C | 12.7 ± 2.2 °C | 5.0 ± 1.1 °C | 0.8 ± 0.2 | 33 | 53 | 20 | 39 | 29 | 83 | 44 | 20 | 440 | 18 | 85 | ΔT1/2 (°C) F21T [1]: 8.0 ± 1.5 °C; Kd (ds26; [13]): 460 µM; Kd1 ([3]; Kd2 83): 29 µM; Kd1 ([4]; Kd2 440): 20 µM; Kd1 ([5]; Kd2 460): 85 µM
CN(C)CCCNCc1ccc(-c2nc(-c3ccc(CNCCCN(C)C)cc3)c3cc(-c4ccccc4)ccc3n2)cc1 [Compound 12b, 2,4-bis{4-[(3-dimethylaminopropyl)aminomethyl]phenyl}-6-phenylquinazoline] | 0.82 ± 0.31 | 1.08 ± 0.1 | 0.58 ± 0.02 | 0.7 ± 0.16 | 1.2 ± 0.27 | 5.8 ± 0.9 °C | 17.4 ± 0.6 °C | 8.9 ± 0.7 °C | 0.4 ± 0.3 | 79 | 5.6 | 2.8 | 77 | 9.5 | 1.5 | 70 | 5.8 | 100 | 48 | 17 | Selectivity Index HEK293/HeLa (HeLa): >36.6; Selectivity Index HEK293/SiHa (SiHa): >27.8; Selectivity Index HEK293/MCF-7 (MCF-7): >51.7; Selectivity Index HEK293/MDA-MB-231 (MDA-MB-231): >42.8; Selectivity Index HEK293/A2780 (A2780): >25.0; Kd (ds26; [13]): 130 µM; Kd1 ([3]; Kd2 1.5, cooperative): 9.5 µM; Kd1 ([4]; Kd2 100): 5.8 µM; Kd1 ([5]; Kd2 130): 17 µM
